Patent EP4585216A1, “HETEROCYCLIC COMPOUNDS FOR THE TREATMENT OF FATTY LIVER DISEASE” (ScandiEdge Therapeutics AB, priority 2024, dated 2025)
Values joined by “and” are separate entries in the source; they are usually repeats but may differ in a detail not shown here. Equal entries are not always repeated. “Also recorded” adds a separate entry of the source.

Columns and labels:
PKM2 [1] = test: Western blot of DNL steatosis model, PKM2 expression; type: cell-based; settings: 5 µM
Protocol: (§1) HepG2 wild type cells were purchased from genome engineering company Synthego. Cells were maintained with growth media RPMI 1640 (R2405, Sigma-Aldrich) and supplemented with 10 % fetal bovine serum (FBS, F7524, Sigma-Aldrich), 1 % penicillin-streptomycin (P/S media, P4333, Sigma-Aldrich). Steatosis induction media was prepared as DMEM high glucose (D0819, Sigma-Aldrich) with 10% FBS, 1% P/S media supplemented with 10µg/ml insulin (I9278, Sigma-Aldrich), and 10µM T0901317 (T2320, Sigma-Aldrich) for one week. HepG2 cells were seeded 6×10^4 cells per well into a 96-well plate for TAG and MTT assay after steatosis and 1×10^6 cells per well into 6-well plate for western blot analysis after steatosis. HepG2 cells were incubated with steatosis induce media (SM) for one week by 3 day + 2 day + 2 day with total three times media exchange.
(§2) After steatosis induction with designated concentration of compounds, whole cell lysate was prepared with CelLytic M (C2978, Sigma-Aldrich) buffer. SDS PAGE was performed on Mini-PROTEAN® TGX™ Precast Gels (Bio-Rad) and transferred using Trans-Blot® Turbo™ Transfer System (Bio-Rad). […] Protein band was detected with ImageQuantTMLAS 500 (29-0050-63, GE). […]

[2] = test system: fatty acid synthase (FASN); test: Western blot of DNL steatosis model, FASN expression; type: cell-based; settings: 5 µM
Protocol: as §1, §2

pyruvate kinase (PK) [3] = test: Pyruvate kinase activity in HepG2 WT protein lysate; type: biochemical; settings: 10 µM
Protocol: (§3) HepG2 WT and HepG2 KO cells were lysed, and protein lysate was prepared with CelLytic M (C2978, Sigma-Aldrich) lysis buffer. Protein lysate was treated with 10 µM of the drugs and the pyruvate kinase activity on protein lysate was measured using Pyruvate Kinase Assay Kit (ab83432, abeam) following manufacturer's instruction. 2×10^4 HepG2 WT cells and 1×10^5 HepG2 KO cells were seeded into a 96-well plate for measuring pyruvate kinase activity in the cells. The cells were treated with 10-20µM of drugs for 4h and washed with 250µl PBS. Cells were lysed with 50 µl PK assay buffer (ab83432, abcam) and start reaction and kinetic O.D measurement was performed on 50µl PK assay buffer containing the assay component (ab83432, abcam). O.D values were measured with microplate reader (Hidex Sense Beta Plus) at 570nm wavelength. DMSO was used as control.
(§4) The effect of the target compounds was studied on liver cell line HepG2. HepG2 expresses two different pyruvate kinases (PK), pyruvate kinase muscle (PKM2) and pyruvate kinase liver (PKL). While most cells express PKM, liver cells further express PKL. […] In addition to HepG2 KO cell, HepG2 wild-type (HepG2 WT) cells were also used.

pyruvate kinase (PK) [4] = test: Pyruvate kinase activity in treated HepG2 WT cells; type: cell-based; settings: 20 µM for 4 h
Protocol: as §3, §4

HepG2 cells [5] = test: TAG measurement in DNL steatosis model; type: cell-based
Protocol: as §1
(§5) HepG2 cells were seeded at 6×10^4 cells per well into 96-well plate and induced steatosis for one week with designated concentration of small molecules (this will be referred to as a DNL steatosis model). After steatosis induction, cells were washed with 200 µl of PBS and triglyceride contents was measured by Triglyceride Assay Kit - Quantification (ab65336, Abeam) following manufacturer's instruction. Optical density (O.D) values were detected with microplate reader at 570 nm (Hidex Sense Beta Plus).
(§6) 5 mg/ml MTT (M2128, Sigma-Aldrich) solution in PBS (10 µL) was added to each well for MTT assay. After 1 hr, MTT solution and all media were removed from the wells. 100 µl of DMSO was added and mixed to dissolve the formazan crystals. Cell viability was analysed by measuring the absorbance of the dissolved formazan in a microplate reader at a wavelength of 570 nm with microplate reader (Hidex Sense Beta Plus). DMSO was used as control.

PKM2 [6] = biological target: T1, PKM2 (Homo sapiens, UniProt P14618); test: Cellular thermal shift assay (Cetsa), PKM2; type: cell-based; settings: HepG2 WT cells, 10 and 20 µM for 2 h, heat shock 60°C 5 min
T1 construct: host or cells: HepG2 wild-type cells
Protocol: (§7) HepG2 WT cells were trypsinized and transferred into 1.5ml tube at a concentration of 500,000 cells per ml. The cells were treated with 10µM and 20µM SET-62 in an 1.5 ml tube and incubated for 2 h at 37°C in an CO2 incubator. The tubes were exposed to heat shock at 60°C for 5 min with a pre-heated heat block. After centrifugation of the heated cells at 13,000 rpm for 1 min, the cells were lysed with 50 µl of Native lysis Buffer (ab156035, abeam). Centrifugation was performed again to purify soluble proteins in the lysed solution and 9 µl of each group were analysed using western blot. DMSO was used as control.

PKL [7] = test: Western blot of DNL steatosis model, PKL expression; type: cell-based; settings: 5 µM
Protocol: as §1, §2

[8] = biological target: T2, pyruvate kinase liver (PKL) (Homo sapiens, UniProt P30613); test: Pyruvate kinase activity in HepG2 PKM2 CRISPR KO protein lysate; type: biochemical
T2 construct: endogenous in cells; host or cells: HepG2 PKM2 CRISPR KO (HepG2 KO) cells; lysate in CelLytic M or treated whole cells
Protocol: as §3, §4

HepG2 cells [9] = test: MTT assay (cell viability) in DNL steatosis model; type: cell-based
Protocol: as §1, §5, §6

PKL [10] = biological target: T3, PKL (Homo sapiens, UniProt P30613); test: Cellular thermal shift assay (Cetsa), PKL; type: cell-based; settings: HepG2 WT cells, 10 and 20 µM for 2 h, heat shock 60°C 5 min
T3 construct: host or cells: HepG2 wild-type cells
Protocol: as §7

[11] = biological target: T2, pyruvate kinase liver (PKL); test: Pyruvate kinase activity in treated HepG2 PKM2 CRISPR KO cells; type: cell-based; settings: 20 µM for 4 h
Protocol: as §3, §4

T2 sequence (P30613 1-543 isoform P30613-2): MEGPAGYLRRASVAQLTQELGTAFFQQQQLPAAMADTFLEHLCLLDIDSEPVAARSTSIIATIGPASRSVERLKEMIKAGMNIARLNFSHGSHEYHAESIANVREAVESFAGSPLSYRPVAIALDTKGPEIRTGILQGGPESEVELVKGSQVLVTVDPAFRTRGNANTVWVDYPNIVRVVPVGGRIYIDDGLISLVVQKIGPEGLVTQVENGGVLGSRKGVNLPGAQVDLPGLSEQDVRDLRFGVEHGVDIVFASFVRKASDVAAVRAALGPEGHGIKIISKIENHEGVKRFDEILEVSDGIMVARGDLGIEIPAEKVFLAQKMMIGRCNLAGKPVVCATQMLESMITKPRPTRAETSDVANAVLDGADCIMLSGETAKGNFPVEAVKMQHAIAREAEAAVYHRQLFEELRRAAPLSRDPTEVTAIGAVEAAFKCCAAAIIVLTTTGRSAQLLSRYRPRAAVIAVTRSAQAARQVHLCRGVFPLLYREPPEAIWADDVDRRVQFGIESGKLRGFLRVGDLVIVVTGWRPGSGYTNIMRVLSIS
T1 sequence (P14618 2-531 limits assumed): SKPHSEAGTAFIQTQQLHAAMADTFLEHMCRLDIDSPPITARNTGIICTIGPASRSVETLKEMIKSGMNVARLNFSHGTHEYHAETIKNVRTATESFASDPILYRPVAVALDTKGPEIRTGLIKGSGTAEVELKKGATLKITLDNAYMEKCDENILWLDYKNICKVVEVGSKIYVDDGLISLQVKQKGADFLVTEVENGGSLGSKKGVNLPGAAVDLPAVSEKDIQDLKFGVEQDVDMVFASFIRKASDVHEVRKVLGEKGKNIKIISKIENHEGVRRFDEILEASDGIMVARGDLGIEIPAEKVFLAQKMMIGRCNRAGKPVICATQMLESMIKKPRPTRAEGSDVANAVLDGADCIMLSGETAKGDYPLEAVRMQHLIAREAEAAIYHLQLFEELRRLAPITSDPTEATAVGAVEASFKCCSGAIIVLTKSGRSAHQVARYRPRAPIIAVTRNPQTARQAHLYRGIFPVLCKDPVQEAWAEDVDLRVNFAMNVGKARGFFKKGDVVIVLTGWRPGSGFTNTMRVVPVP
T3 sequence (P30613 1-543 isoform P30613-2): as the sequence (P30613 1-543 isoform P30613-2) above

O=S1(=O)c2cc(O)c(O)cc2-c2ccc(C(F)(F)F)cc2N1Cc1ccccc1 [SET-62, 6-benzyl-2,'3-dihydroxy-8-(trifluoromethyl)-6H-dibenzo[c,e][1,2]thiazine 5,5-dioxide]
expression of PKM2 (PKM2 [1]): slight increase
FASN protein expression level [2]: decreased
PK activity of HepG2 WT protein lysate (in words) (pyruvate kinase (PK) [3]; batches 4 and 5): highest inhibitory effect
reduction in PK activity of HepG2 WT protein lysate (pyruvate kinase (PK) [3]; compared to the control (DMSO)): 59.9%
effect on PK activity in HepG2 WT cells (in words) (pyruvate kinase (PK) [4]): slightly increased the PK activity
increase in PK activity of HepG2 WT cells (pyruvate kinase (PK) [4]): 6% and 9.0%
TAG/MTT reduced to (HepG2 cells [5]; 0.625 µM for one week): 15.0%
TAG/MTT ratio reduced to (HepG2 cells [5]; 5 µM for one week): 49.4% and 61.3%
TAG content (in words) (HepG2 cells [5]; 10 µM for 1 week): reduced TAG content
TAG/MTT ratio (HepG2 cells [5]; 10 µM for 1 week): 92.9%
increase of the solubility of PKM2 (PKM2 [6]): 12-18%
PKL protein expression level (PKL [7]): decreased
PK activity of HepG2 KO protein lysate (in words) ([8]; 10 µM, batches 4 and 5): highest inhibitory effect
inhibition at 10 µM ([8]; compared to the control (DMSO), read-out: reduction in PK activity of HepG2 KO protein lysate): 57%
cell viability (in words) (HepG2 cells [9]; 5 µM for 1 week (batch 4)): increased the cell viability
cell viability (MTT assay, in words) (HepG2 cells [9]; 10 µM for 1 week): decreased cell viability; also recorded: strong toxicity
cell viability / toxicity (in words) (HepG2 cells [9]; lower doses (5 µM, 2.5 µM, 1.25 µM, 0.625 µM), one week): did not exhibit any toxicity
decrease of the solubility of PKL (PKL [10]): ~ 38%
decrease in PK activity of HepG2 KO cells [11]: 32.8% and 24.4%
effect on PK activity in HepG2 KO cells (in words) [11]: decreased the PK activity
